{
  "source": "patent US5679680A",
  "about": "“α-substituted hydrazides having calpain inhibitory activity” (Warner-Lambert Company, priority 1995, dated 1997)",
  "key": {"[1]": {"system": "Spectrin Breakdown in Human Leukemic Molt-4 cells", "test": "Cell-based calpain assay: spectrin breakdown in Molt-4 cells treated with calcium ionophore A23187", "conditions": "1 hour preincubation, 15 μM A23187, 90 minutes, read-out: IC50 for inhibition of spectrin breakdown (145 kD fragment formation)", "protocol": "Calpain inhibitor was added to the wells if desired and preincubated for 1 hour. […] The cells were then lysed with 2% (w/v) SDS, 5 mM EGTA, 5 mM EDTA, 150 mM NaCl, 0.5 mM PMSF, 10 μg/mL AEBSF, 5 μg/mL leupeptin, 10 μg/mL pepstatin, 10 μg/mL TLCK, 10 μg/mL TPCK, and 20 mM Tris-HCl (pH 7.4) at room temperature for 5 to 10 minutes. One hundred microliters of 100% (w/v) TCA was added and total protein precipitate was collected by microcentrifugation. The final pellets were neutralized with Tris base. Protein samples (50 μg) were run on SDS-PAGE with the Tris-glycine running buffer system and transferred onto a PVDF membrane. The blots were probed with an anti-spectrin (nonerythroid) antibody and a second antibody with alkaline phosphatase conjugate. The blots were developed with nitro blue tetrazolium and 5-bromo-4-chloro-3-indolyl-phosphate."}, "[2]": {"molecular_target": "T1, Human Calpain II (Homo sapiens, UniProt P17655)", "T1 sequence (P17655 1-700)": "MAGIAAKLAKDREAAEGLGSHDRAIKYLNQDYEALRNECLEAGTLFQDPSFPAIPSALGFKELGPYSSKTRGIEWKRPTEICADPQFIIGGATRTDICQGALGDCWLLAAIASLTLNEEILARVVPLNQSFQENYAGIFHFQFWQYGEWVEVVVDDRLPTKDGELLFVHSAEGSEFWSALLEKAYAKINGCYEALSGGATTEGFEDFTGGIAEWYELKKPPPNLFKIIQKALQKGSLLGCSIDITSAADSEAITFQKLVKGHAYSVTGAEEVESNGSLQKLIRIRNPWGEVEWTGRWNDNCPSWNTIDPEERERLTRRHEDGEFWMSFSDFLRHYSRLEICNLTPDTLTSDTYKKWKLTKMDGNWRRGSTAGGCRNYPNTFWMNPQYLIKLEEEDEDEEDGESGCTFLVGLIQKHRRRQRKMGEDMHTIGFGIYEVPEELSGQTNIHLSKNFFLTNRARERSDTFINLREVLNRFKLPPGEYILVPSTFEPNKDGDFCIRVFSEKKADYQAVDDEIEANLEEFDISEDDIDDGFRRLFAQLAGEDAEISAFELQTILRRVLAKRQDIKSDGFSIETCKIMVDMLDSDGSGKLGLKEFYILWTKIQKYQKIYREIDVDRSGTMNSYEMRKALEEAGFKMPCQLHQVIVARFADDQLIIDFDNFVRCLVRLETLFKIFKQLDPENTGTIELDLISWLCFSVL", "T1 sequence (P04632 1-268 partner)": "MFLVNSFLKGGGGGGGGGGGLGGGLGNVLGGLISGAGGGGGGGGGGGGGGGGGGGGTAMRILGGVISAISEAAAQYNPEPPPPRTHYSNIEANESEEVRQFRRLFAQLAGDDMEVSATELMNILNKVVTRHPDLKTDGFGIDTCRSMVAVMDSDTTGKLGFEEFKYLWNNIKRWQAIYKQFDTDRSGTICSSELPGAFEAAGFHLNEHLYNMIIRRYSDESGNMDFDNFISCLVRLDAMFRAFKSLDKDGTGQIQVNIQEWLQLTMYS", "test": "Calpain II activity, casein substrate, Coomassie microplate assay", "type": "biochemical", "conditions": "casein 0.5 mg/mL (Table I)", "protocol": "(§1) Assay of calpain activity: Calpain I was purified from human erythrocytes as described by Wang K K W, Roufogalis B D, and Villalobo A, Arch Biochem Biophys 1988;267: 317-327. Calpain activity was assayed in a 96-well microplate format (Buroker-Kilgore M and Wang K K W, Anal Bio Chem 1993;208: 387-392). In 250 μL of reaction mixture, substrate casein (0.5 mg/mL) was incubated with 0.01 unit (80-120 ng) calpain I, 20 mM dithiothreitol (DTT), 50 mM Tris-HCl (pH 7.4 at 25° C.) and 4 mM CaCl2 at 25° C. for 60 minutes. Two 100-μL aliquots were taken for Coomassie blue G250 binding analysis to quantify the remaining casein.\n(§2) Compound concentrations that cause 50% inhibition (IC50) are as shown (Table I). The second rate of inactivation of calpain I for 2 compounds are also shown.\n(§3) Selectivity of α-substituted Hydrazides: Calpain I and II were assayed as described in Example 1. One to 2 ng papain (papaya latex, Sigma, P3125), 1.25 μg trypsin (bovine pancreas, Sigma, T8003), 5 μg thermolysin (Bacillus thermoproteolyticus, Sigma, P1512) were assayed using 0.5 mg/mL casein as substrate in the microplate format (250 μL reaction volume), essentially a described by Buroker-Kilgore, M. and Wang K K W, Anal Biochem 1993;208: 387-392. Cathepsin B (0.002 unit, bovine spleen) was assayed with 50 mM MES (pH 5.5), 100 μM carbobenzoxy-Arg-Arg-4-methoxy-beta-naphthlamide (Cbz-Arg-Arg-MNA), inhibitor, and 2 mM DTT in 200 μL for 60 minutes at room temperature. Fifty-microliter aliquots were transferred to a fluorescence-compatible plate and then read with a Perkin-Elmer fluorometer LS-50B (excitation 340 nm and emission 425 nm). Calcineurin (bovine brain, Sigma) (5 μg, 0.8 unit) was assayed with 10 mM p-nitrophenyl phosphate in 1 mM DTT, 1 mM CaCl2, 1 mM MnCl2, […] calmodulin (CaM, if added), and 50 mM Tris-HCl (pH 7.4) at 25° C. for 60 minutes or more. Production of p-nitrophenol was monitored at 405 nm. Inhibition of these proteases are presented as IC50."}, "[3]": {"molecular_target": "T2, Human Calpain I (Homo sapiens, UniProt P07384)", "T2 construct": "Calpain I was purified from human erythrocytes; from tissue; host or cells: human erythrocytes", "T2 sequence (P07384 1-714)": "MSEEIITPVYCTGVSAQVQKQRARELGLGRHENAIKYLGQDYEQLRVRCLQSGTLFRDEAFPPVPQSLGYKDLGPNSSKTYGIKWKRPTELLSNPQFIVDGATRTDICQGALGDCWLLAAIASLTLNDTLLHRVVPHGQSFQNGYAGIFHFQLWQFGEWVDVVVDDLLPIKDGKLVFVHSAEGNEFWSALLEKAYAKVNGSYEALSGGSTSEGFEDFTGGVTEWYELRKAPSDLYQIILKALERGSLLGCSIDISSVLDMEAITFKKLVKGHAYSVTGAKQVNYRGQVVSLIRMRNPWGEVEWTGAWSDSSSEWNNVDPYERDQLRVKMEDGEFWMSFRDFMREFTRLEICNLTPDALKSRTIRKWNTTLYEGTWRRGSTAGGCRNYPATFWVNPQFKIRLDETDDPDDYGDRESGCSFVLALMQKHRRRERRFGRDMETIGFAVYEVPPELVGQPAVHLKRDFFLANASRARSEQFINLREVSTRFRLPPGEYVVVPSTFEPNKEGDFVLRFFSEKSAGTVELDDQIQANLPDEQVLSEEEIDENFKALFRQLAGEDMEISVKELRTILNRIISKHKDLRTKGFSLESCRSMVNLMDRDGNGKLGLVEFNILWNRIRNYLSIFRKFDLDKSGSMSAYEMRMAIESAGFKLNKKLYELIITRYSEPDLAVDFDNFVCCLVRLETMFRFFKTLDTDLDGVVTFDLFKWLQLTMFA", "T2 sequence (P04632 1-268 partner)": "T1 sequence (P04632 1-268 partner)", "test": "Calpain I activity, casein substrate, Coomassie microplate assay", "type": "biochemical", "conditions": "for IC50: casein 0.5 mg/mL, pH 7.4, 25° C., 60 minutes (Table I)", "protocol": "as §1, §2, §3"}, "[4]": {"system": "ischemic neocortex", "conditions": "applied directly to the surfaces of ischemic neocortex; cited from earlier work"}, "[5]": {"system": "restenosis", "conditions": "in vivo; cited from earlier work"}, "[6]": {"system": "acute myocardiac infraction in dogs", "conditions": "coronary reperfusion after acute myocardiac infraction; cited from earlier work"}, "[7]": {"system": "platelet", "conditions": "cited from earlier work"}, "[8]": {"system": "aggregin", "conditions": "cited from earlier work"}, "[9]": {"system": "cataract", "conditions": "whole animal; cited from earlier work"}},
  "note": "Square brackets hold non-standard residues; d marks the D form. Ends that are not written are not given here. Peptide text beside a SMILES is read from it. Nle = CCCC[C@H](N)C(=O)O",
  "data": [
    {"compound": "O=C(CCl)NN=c1[nH]c2ccccc2n(-c2ccc(Cl)cc2)c1=O", "note": "[Example 9, 2-Chloro-acetic acid [4-(4-chloro-phenyl)-3-oxo-3,4-dihydro-1H-quinoxalin-2-ylidene]-hydrazide]", "values": [
      {"measurement": "IC50", "setting": "[1]", "value": 15, "unit": "µM"},
      {"measurement": "IC50", "setting": "[2]", "value": 0.158, "unit": "µM"},
      {"measurement": "Ki/[I] Calpain I (second rate of inactivation)", "setting": "[3]", "value": 63.7, "unit": "M⁻¹ s⁻¹"},
      {"measurement": "IC50", "setting": "[3]", "value": 0.486, "unit": "µM"}
    ]},
    {"compound": "CCNC(=O)C(=O)C(CC)NC(=O)C(CC(C)C)NC(=O)OCc1ccccc1", "note": "(stereo not drawn) [AK275]", "values": [
      {"measurement": "Size of the expected infarct", "setting": "[4]", "value": "dramatically and unequivocally reduce the size of the expected infarct"}
    ]},
    {"compound": "CCCC[C@@H](C=O)NC(=O)[C@H](CC(C)C)NC(=O)[C@H](CC(C)C)NC(C)=O", "note": "[calpain inhibitor I] (Ac-Leu-Leu-[Nle]-aldehyde)", "values": [
      {"measurement": "Restenosis", "setting": "[5]", "value": "can inhibit restenosis"}
    ]},
    {"compound": "CC(C)CCNC(=O)[C@H](CC(C)C)NC(=O)[C@H]1O[C@@H]1C(=O)O", "note": "[Example E64c]", "values": [
      {"measurement": "Size of infarct", "setting": "[6]", "value": "significantly reduce the size of infract"}
    ]},
    {"compound": "Cn1c(=O)c(=NNC(=O)CCl)[nH]c2ccccc21", "note": "[Example 14, 2-Chloro-acetic acid (4-methyl-3-oxo-3,4-dihydro-1H-quinoxalin-3-ylidene)-hydrazide]", "values": [
      {"measurement": "IC50", "setting": "[2]", "value": 10.8, "unit": "µM"},
      {"measurement": "IC50", "setting": "[3]", "value": 8.28, "unit": "µM"}
    ]},
    {"compound": "O=C(CBr)NN=c1[nH]c2ccccc2n(-c2ccccc2)c1=O", "note": "[Example 4, 2-Bromo-acetic acid (3-oxo-4-phenyl-3,4-dihydro-1H-quinoxalin-2-ylidene)-hydrazide]", "values": [
      {"measurement": "IC50", "setting": "[1]", "value": 25, "unit": "µM"},
      {"measurement": "IC50", "setting": "[2]", "value": 0.574, "unit": "µM"},
      {"measurement": "IC50", "setting": "[3]", "value": 0.697, "unit": "µM"}
    ]},
    {"compound": "Phe-Gln-Val-Val-Cys(3-nitro-2-thiopyridine)-Gly-NH2 (FQVVC(3‑nitro‑2‑thiopyridine)G-NH2)", "values": [
      {"measurement": "Platelet aggregation", "setting": "[7]", "value": "blocked aggregin breakdown and platelet aggregation"},
      {"measurement": "Aggregin breakdown", "setting": "[8]", "value": "blocked aggregin breakdown"}
    ]},
    {"compound": "CC(C)C[C@H](NC(=O)[C@H]1O[C@@H]1C(=O)O)C(=O)NCCCCN=C(N)N", "note": "[Example E64]", "values": [
      {"measurement": "Rate of cataract formation", "setting": "[9]", "value": "reduce the rate of cataract formation"}
    ]}
  ]
}
